Experimental data from patent US12150995B2, “IRAK degraders and uses thereof” (Kymera Therapeutics, Inc., priority 2020, dated 2024).

Target: T1, IRAK4 (Homo sapiens, UniProt Q9NWZ3)
T1 construct: endogenous in cells; host or cells: OCI-LY10
T1 sequence (Q9NWZ3 1-460): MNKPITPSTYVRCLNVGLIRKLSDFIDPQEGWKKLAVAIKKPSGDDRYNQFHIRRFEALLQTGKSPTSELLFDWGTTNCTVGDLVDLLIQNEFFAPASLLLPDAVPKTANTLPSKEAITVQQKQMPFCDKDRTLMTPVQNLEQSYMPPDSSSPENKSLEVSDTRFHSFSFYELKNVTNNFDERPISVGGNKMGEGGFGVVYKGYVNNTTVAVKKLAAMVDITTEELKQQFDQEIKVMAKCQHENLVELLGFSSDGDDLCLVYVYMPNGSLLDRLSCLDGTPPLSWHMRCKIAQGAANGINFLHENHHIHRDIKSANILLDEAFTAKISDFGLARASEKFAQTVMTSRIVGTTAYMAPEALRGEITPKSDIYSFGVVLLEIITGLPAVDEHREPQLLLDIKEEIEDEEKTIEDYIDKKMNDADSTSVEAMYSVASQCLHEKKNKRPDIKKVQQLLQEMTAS
Assay: IRAK4 MSD Degradation in OCI-LY10
Assay type: cell-based
Conditions: OCI-LY10 cells, Meso Scale Discovery, incubated 4 to 24 hours
Procedure, shortened: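 IRAK4 degradation was quantified by Meso Scale electrochemiluminescence (anti-IRAK4 capture and detection antibodies) in lysates of treated OCI-LY10 cells. Compounds were dosed at 8 concentrations (1:3 dilutions, top 1 to 10 μM) for 4 to 24 h; DC50 derived by three-parameter logistic fitting.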

SMILES | DC50 [µM]
COc1cc2nn([C@H]3CC[C@H](CN4CCN(c5c(OC)ccc6c(N7CCC(=O)NC7=O)cncc56)CC4)CC3)cc2cc1NC(=O)c1cccc(C(F)(F)F)n1 [I-332] | 0.01 to 0.05
COc1cc2nn([C@H]3CC[C@H](CN4C[C@H]5C[C@@H]4CN5c4cccc5c4n(C)c(=O)n5C4CCC(=O)NC4=O)CC3)cc2cc1NC(=O)c1cncc(C#N)c1 (stereo partly shown) [I-166] | > 0.2
COc1cc2nn([C@H]3CC[C@H](CN4CCC(c5c(Cl)ccc6c5n(C)c(=O)n6C5CCC(=O)NC5=O)CC4)CC3)cc2cc1NC(=O)c1cccc(C(F)(F)F)n1 (stereo partly shown) [I-37] | < 0.01
N#Cc1cc2nn([C@H]3CC[C@H](CN4CCC(c5cccc6c(N7CCC(=O)NC7=O)cncc56)CC4)CC3)cc2cc1NC(=O)c1cccc(C(F)(F)F)n1 [I-213] | < 0.01
Cn1c(=O)n(C2CCC(=O)NC2=O)c2cccc(C3CCN(C[C@H]4CC[C@H](n5cc6cc(NC(=O)n7ccc8cc(C#N)cnc87)ccc6n5)CC4)CC3)c21 (stereo partly shown) [I-129] | < 0.01
COc1cc2nn([C@H]3CC[C@H](CN4C5CC4CN(c4cccc6c4n(C)c(=O)n6C4CCC(=O)NC4=O)C5)CC3)cc2cc1NC(=O)c1cncc(C#N)c1 (stereo partly shown) [I-258] | > 0.2
COc1cc2nc([C@H]3CC[C@H](CN(C)CCCNc4cccc5c4C(=O)N(C4CCC(=O)NC4=O)C5=O)CC3)sc2cc1NC(=O)c1cncc(Cl)c1 (stereo partly shown) [I-483] | > 0.2
Cn1c(=O)n(C2CCC(=O)NC2=O)c2cccc(C3CCN(C[C@H]4C[C@H](n5cc6cc(NC(=O)c7cccc(C(F)(F)F)n7)c(F)cc6n5)C4)CC3)c21 (stereo partly shown) [I-30] | 0.01 to 0.05
CN(C[C@H]1CC[C@H](n2cc3cc(NC(=O)c4cccc(C(F)(F)F)n4)ccc3n2)CC1)C1CCN(c2cccc3c(N4CCC(=O)NC4=O)cncc23)CC1 [I-98] | > 0.2
COc1cc2nn([C@H]3CC[C@H](CN4CCN(c5cccc6c5n(C)c(=O)n6C5CCC(=O)NC5=O)CC4(C)C)CC3)cc2cc1NC(=O)c1cccc(C(F)(F)F)n1 (stereo partly shown) [I-306] | 0.01 to 0.05
COc1cc2nc([C@H]3C[C@H](CN4CCC(c5cccc6c5n(C)c(=O)n6C5CCC(=O)NC5=O)CC4)C3)sc2cc1NC(=O)c1cccc(C(F)(F)F)n1 (stereo partly shown) [I-235] | 0.05 to 0.1
CN(CCn1cc2cc(NC(=O)c3cccc(C(F)(F)F)n3)c(F)cc2n1)C1CCN(c2cccc3c2n(C)c(=O)n3C2CCC(=O)NC2=O)CC1 (stereo not shown) [I-19, N-[2-[2-[[1-[1-(2,6-dioxo-3-piperidyl)-3-methyl-2-oxo-benzimidazol-4-yl]-4-piperidyl]-methyl-amino]ethyl]-6-fluoro-indazol-5-yl]-6-(trifluoromethyl)pyridine-2-carboxamide] | > 0.2
COc1cc2nn([C@H]3C[C@H](CN4CCC(c5c(OC)ccc6c5n(C)c(=O)n6C5CCC(=O)NC5=O)CC4)C3)cc2cc1NC(=O)c1cccc(C(F)(F)F)n1 (stereo partly shown) [I-138] | < 0.01
CC(C)(O)c1cc2nn(-c3ccc(CN4CCC5(CCC(Nc6cccc7c6C(=O)N(C6CCC(=O)NC6=O)C7=O)CC5)CC4)cc3)cc2cc1NC(=O)c1cccc(C(F)(F)F)n1 (stereo not shown) [I-462] | 0.1 to 0.2
COc1ccc2c(c1C1CCN(C[C@H]3CC[C@H](n4cc5cc(NC(=O)c6cccc(C(F)(F)F)n6)ncc5n4)CC3)CC1)n(C)c(=O)n2[C@@H]1CCC(=O)NC1=O (single isomer, unassigned) [I-274] | 0.01 to 0.05
CC(C)(O)c1cc2nc([C@H]3CC[C@H](C(=O)N4CCN(CCNc5cccc6c5C(=O)N(C5CCC(=O)NC5=O)C6=O)CC4)CC3)sc2cc1NC(=O)c1cccc(C#N)n1 (stereo partly shown) [I-434] | 0.05 to 0.1
Cc1ccc2c(c1C1CCN(C[C@H]3CC[C@H](n4cc5cc(NC(=O)c6cccc(C(F)(F)F)n6)ncc5n4)CC3)CC1)n(C)c(=O)n2C1CCC(=O)N(C)C1=O (stereo partly shown) [I-162] | > 0.2
COc1cc2nn([C@H]3C[C@H](CN(C)C4CCN(c5cccc6c5n(C)c(=O)n6C5CCC(=O)NC5=O)CC4)C3)cc2cc1NC(=O)c1cccc(C(F)(F)F)n1 (stereo partly shown) [I-31, N-[2-[3-[[[1-[1-(2,6-dioxo-3-piperidyl)-3-methyl-2-oxo-benzimidazol-4-yl]-4-piperidyl]-methyl-amino]methyl]cyclobutyl]-6-methoxy-indazol-5-yl]-6-(trifluoromethyl)pyridine-2-carboxamide] | < 0.01
CC(C)Nc1cc(-c2ccc3cc(C#N)cnn23)ncc1C(=O)N[C@H]1CC[C@H](CN2CCC(c3cccc4c3n(C)c(=O)n4C3CCC(=O)NC3=O)CC2)CC1 (stereo partly shown) [I-183] | < 0.01
CC(C)Nc1cc(-c2ccc3cc(C#N)cnn23)ncc1C(=O)N[C@H]1CC[C@H](CN2CCC(c3ccc4c(N5CCC(=O)NC5=O)cncc4c3)CC2)CC1 [I-198] | < 0.01
COc1cc2nc([C@H]3CC[C@H](CN(C)CCCCNc4cccc5c4C(=O)N(C4CCC(=O)NC4=O)C5=O)CC3)sc2cc1NC(=O)c1cccc(C#N)n1 (stereo partly shown) [I-433] | 0.01 to 0.05
COc1cc2nc([C@H]3CC[C@H](CN(C)CCCCNc4cccc5c4C(=O)N(C4CCC(=O)NC4=O)C5=O)CC3)sc2cc1NC(=O)c1cncc(C)c1 (stereo partly shown) [I-460] | > 0.2

SMILES | DC50 [µM]
COc1cc2nn([C@H]3CC[C@H](CN4C5CCC4CN(c4cccc6c4n(C)c(=O)n6C4CCC(=O)NC4=O)C5)CC3)cc2cc1NC(=O)c1cncc(C#N)c1 (stereo partly shown) [I-262] | < 0.01
COc1cc2nn([C@H]3CC[C@H](CN4CCN(c5cc(F)cc6c(N7CCC(=O)NC7=O)cncc56)CC4)CC3)cc2cc1NC(=O)c1cccc(C(F)(F)F)n1 [I-413] | < 0.01
CN(CCCO[C@H]1C[C@@H](Nc2cccc3c2C(=O)N(C2CCC(=O)NC2=O)C3=O)C1)C[C@H]1CC[C@H](n2cc3cc(NC(=O)c4cccc(C(F)(F)F)n4)c(C(C)(C)O)cc3n2)CC1 (stereo partly shown) [I-464] | 0.01 to 0.05
O=C1CCN(c2cncc3cc(C4CCN(C[C@H]5CC[C@H](n6cc7cc(NC(=O)c8cccc(C(F)(F)F)n8)ccc7n6)CC5)CC4)ccc23)C(=O)N1 [I-321] | > 0.2
COc1ccc2c(c1C1CCN(C[C@H]3CC[C@H](n4cc5cc(NC(=O)c6cccc(C(F)(F)F)n6)ncc5n4)CC3)CC1)n(C)c(=O)n2C1CCC(=O)N(C)C1=O (stereo partly shown) [I-245] | > 0.2
CC(C)(O)c1cc2nc([C@H]3CC[C@H](CN4CCN(CCNc5cccc6c5C(=O)N(C5CCC(=O)NC5=O)C6=O)CC4)CC3)sc2cc1NC(=O)c1cncc(C#N)c1 (stereo partly shown) [I-453] | 0.1 to 0.2
CC(C)(O)c1cc2nc([C@H]3CC[C@H](CN4CCO[C@@H](CCCNc5cccc6c5C(=O)N(C5CCC(=O)NC5=O)C6=O)C4)CC3)sc2cc1NC(=O)c1cccc(C#N)n1 (stereo partly shown) [I-438] | 0.01 to 0.05
CC(C)(O)c1cc2nn([C@H]3CC[C@H](CN4CCN(c5cccc6c(N7CCC(=O)NC7=O)cncc56)CC4)CC3)cc2cc1NC(=O)c1cccc(C(F)(F)F)n1 [I-224] | < 0.01
Cn1c(=O)n(C2CCC(=O)NC2=O)c2cccc(C3CCN(C[C@H]4CC[C@H](n5cc6cc(NC(=O)c7cccc(C(F)(F)F)c7F)ccc6n5)CC4)CC3)c21 (stereo partly shown) [I-214] | < 0.01
Cc1cc2nn([C@H]3CC[C@H](CN4C5CCC4CN(c4cccc6c4n(C)c(=O)n6C4CCC(=O)NC4=O)C5)CC3)cc2cc1NC(=O)c1cccc(C(F)(F)F)n1 (stereo partly shown) [I-398] | < 0.01
COc1cc2nn([C@H]3CC[C@H](CN4CCC(c5c(C)ccc6c5n(C)c(=O)n6C5CCC(=O)NC5=O)CC4)CC3)cc2cc1NC(=O)c1cncc(Cl)c1 (stereo partly shown) [I-110] | < 0.01
Cc1cc2nn([C@H]3CC[C@H](CN4CCN(c5cccc6c5n(C)c(=O)n6C5CCC(=O)NC5=O)CC4)CC3)cc2cc1NC(=O)c1cncc(C(F)(F)F)n1 (stereo partly shown) [I-401] | < 0.01
Cc1ccc2c(c1C1CCN(C[C@H]3CC[C@H](n4cc5cc(NC(=O)c6cccc(C(F)(F)F)n6)c(F)cc5n4)CC3)CC1)n(C)c(=O)n2C1CCC(=O)NC1=O (stereo partly shown) [I-67] | 0.01 to 0.05
Cn1c(=O)n(C2CCC(=O)NC2=O)c2ccc(F)c(C3CCN(C[C@H]4CC[C@H](n5cc6cc(NC(=O)c7cccc(C#N)n7)ccc6n5)CC4)CC3)c21 (stereo partly shown) [I-128] | < 0.01
Cc1ccc2c(c1C1CCN(C[C@H]3C[C@H](n4cc5cc(NC(=O)c6cccc(C(F)(F)F)n6)ccc5n4)C3)CC1)n(C)c(=O)n2C1CCC(=O)NC1=O (stereo partly shown) [I-148] | 0.1 to 0.2
O=C1CCN(c2cncc3c(C4CCN(C[C@H]5CC[C@H](n6cc7cc(NC(=O)c8cccc(C(F)(F)F)n8)c(Cl)cc7n6)CC5)CC4)cccc23)C(=O)N1 [I-370] | 0.01 to 0.05
Cc1cccc(C(=O)Nc2cc3sc([C@H]4CC[C@H](CN5CCN(CCCNc6cccc7c6C(=O)N(C6CCC(=O)NC6=O)C7=O)[C@H](C)C5)CC4)nc3cc2C(C)(C)O)n1 (stereo partly shown) [I-452] | 0.01 to 0.05
Cc1ccc2c(c1C1CCN(C[C@H]3CC[C@H](n4cc5cc(NC(=O)c6cccc(C(F)(F)F)n6)ncc5n4)CC3)CC1)n(C)c(=O)n2C1CCC(=O)NC1=O (stereo partly shown) [I-102] | < 0.01
CC(C)(O)c1cc2nc([C@H]3CC[C@H](C(=O)N4CCN(CCNc5cccc6c5C(=O)N(C5CCC(=O)NC5=O)C6=O)CC4)CC3)sc2cc1NC(=O)c1cncc(C#N)c1 (stereo partly shown) [I-431] | > 0.2
COc1cc2nn([C@H]3CC[C@H](CN4CCCN(c5ccc6c(N7CCC(=O)NC7=O)cncc6c5)CC4)CC3)cc2cc1NC(=O)c1cccc(C(F)(F)F)n1 [I-356] | < 0.01
Cn1c(=O)n(C2CCC(=O)NC2=O)c2cccc(N3CCN(C[C@H]4CC[C@H](n5cc6cc(NC(=O)c7cccc(C(F)(F)F)n7)c(C(=O)O)cc6n5)CC4)CC3)c21 (stereo partly shown) [I-415, 2-[4-[[4-[1-(2,6-dioxo-3-piperidyl)-3-methyl-2-oxo-benzimidazol-4-yl]piperazin-1-yl]methyl]cyclohexyl]-5-[[6-(trifluoromethyl)pyridine-2-carbonyl]amino]indazole-6-carboxylic acid] | 0.01 to 0.05
